In PubChem BioAssay AID463206 (Broad Institute, 2010):
The source made the active and inactive calls.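 Rule for the calls: active = caspase luminescence falls with dose and the half-maximal concentration AC50 from the fitted curve is at or below a set limit; inconclusive = flat fit at 30 to 70% signal loss, or invalid fit; inactive = AC50 above the limit, or signal rises instead.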

System: INS-1E cytokine-induced caspase-3/7, Caspase-Glo luminescence, 48 h
Experiment: suppression of cytokine-driven beta-cell apoptosis – INS-1E rat cells, luminescence, orthogonal assay for beta-cell apoptosis protection project, dose response (AID 463206)

| SMILES | AC50 |
| --- | --- |
| CCCCCc1nc2c(c(=O)c3ccccc3n2C)c(=O)n1C1CCCCCC1 | > 26 µM (inactive) |
| O=C(N/N=C/c1cc(Br)c(Br)s1)c1ccncc1 | > 26 µM (inactive) |
| O=S1(=O)CCN(Cc2csc(-c3cccs3)n2)CC1 | > 26 µM (inactive) |
| COc1cc(C(=O)Oc2ccccc2/C=N/NC(=O)c2ccc(C)c(Cl)c2)cc(OC)c1OC | > 26 µM (inactive) |
| Cc1ccc(C(C)C)c(OCc2nn(CC(=O)c3ccc(OC(F)F)cc3)c3[n+]2CCCCC3)c1 | > 26 µM (inactive) |
| NS(=O)(=O)c1ccc(N/N=C2/CCCCC2C2CCCCC2)c([N+](=O)[O-])c1 (stereo not drawn) | > 12 µM (inactive) |
| O=C(CSc1nnc(Cn2nnc3ccccc32)o1)N(Cc1ccc(F)cc1)c1ccccc1 | > 26 µM (inactive) |
| CCCCn1c(NS(=O)(=O)c2ccccc2)c(S(=O)(=O)c2ccc(C)cc2)c2nc3ccccc3nc21 | > 12 µM (inactive) |
| O=[N+]([O-])c1ccc(S(=O)(=O)c2ccccc2)nc1 | > 26 µM (inactive) |
| COc1ccc(C2=NNC(=Nc3cc(S(=O)(=O)N(C)C)ccc3C)SC2)c(OC)c1 | 24.8 µM |
| Fc1ccc2nc(Nc3nc4c(F)cc(F)cc4s3)sc2c1 | > 26 µM (inactive) |
| Cc1cc(C)nc(N/N=C2/CCCC/C2=C\c2ccccc2)n1 | > 26 µM (inactive) |
| CCN(CC)c1ccc(/C=N/NC(=O)c2c(Cl)cnn2C)c(O)c1 | > 26 µM (inactive) |
| O=[N+]([O-])c1ccc(NC(=S)NCCc2ccc(Cl)cc2)cc1 | > 26 µM (inactive) |
| CCC[C@@H](CN1CCC[C@H]1CN1C(N)=NC[C@@H]1Cc1ccccc1)N1C[C@@H]([C@H](C)CC)N(CCCC2CCCC2)C1=N | > 26 µM (inactive) |
| COc1ccc2nc(/C(C#N)=C\c3ccc(Oc4ccc([N+](=O)[O-])cn4)cc3)[nH]c2c1 | > 26 µM (inactive) |
| NC1=NC[C@H](Cc2ccc(O)cc2)N1CCCCC1CCCCC1 | > 26 µM (inactive) |
| CCN(CC(=O)Nc1ccc(NC(C)=O)cc1)C(=O)CCCOc1ccc(C(C)(C)C)cc1 | > 26 µM (inactive) |
| Cc1nc2ccc(NC(=O)c3cc(S(=O)(=O)N(C)c4ccccc4)ccc3Cl)cc2s1 | > 26 µM (inactive) |
| Fc1ccc(C[n+]2c(-c3ccccc3)cc(-c3ccccc3)cc2-c2ccccc2)cc1 | > 26 µM (inactive) |
| Cc1ccc(Nc2c(-c3ccccn3)nc3cccc(C)n23)cc1 | > 26 µM (inactive) |
| CCOC(=O)[C@@H]1[C@H]2COc3cc(OC)ccc3[C@H]2N2C(=O)N(c3ccc(C(F)(F)F)cc3)C(=O)[C@]12C | > 26 µM (inactive) |
| CC(C)(C)C(=O)NC(=S)NNC(=O)c1ccc(-c2ccccc2)cc1 | > 26 µM (inactive) |
| COc1cc(OC)nc(-n2ncc(Br)c(Br)c2=O)n1 | > 26 µM (inactive) |

| SMILES | AC50 |
| --- | --- |
| CCOC(=O)/C(=C\c1ccccc1)C(=O)c1cc(C(C)=O)c(Nc2ccccc2)s1 | > 26 µM (inactive) |
| Cc1ccc(S(=O)(=O)Nc2ccccc2C(=O)Nc2nc(-c3ccc(F)cc3)cs2)cc1 | > 26 µM (inactive) |
| CC1=C/C(=N\OS(=O)(=O)c2ccccc2)C(C)=CC1=O | > 26 µM (inactive) |
| CCCCCCCCCCOC(=O)C[N+](C)(C)C/C=C(/C)Cl | > 26 µM (inactive) |
| COc1ccc(C)cc1Nc1n[n+](-c2ccccc2)c(-c2ccc(OC)c(OC)c2OC)s1 | > 26 µM (inactive) |
| COc1ccc(O)c(/C=N/Nc2nc(Nc3ccccc3)nc(-n3nc(C)cc3C)n2)c1 | > 26 µM (inactive) |
| Cc1ccc2nc(-c3ccccn3)c(Nc3ccccc3C)n2c1 | > 26 µM (inactive) |
| Cc1ccc([N+](=O)[O-])c(OCCN2CCCCCC2)c1 | > 26 µM (inactive) |
| Cc1cc(C(=O)NC2CCCc3c2cnn3-c2ccc(C)c(C)c2)n(C)n1 (stereo not drawn) | > 26 µM (inactive) |
| CCCCNC1=CC(=O)C(=O)c2ccccc21 | > 26 µM (inactive) |
| Cc1ccc2c(c1)N(C(=O)CCC(=O)NCCCN1CCC(Cc3ccccc3)CC1)CCO2 | 10.8 µM |
| O=[N+]([O-])c1c(Nc2ccccn2)cc(Cl)c2nonc12 | > 26 µM (inactive) |
| COc1cnc(-c2ccccn2)nc1N(C)c1ccccc1 | > 26 µM (inactive) |
| CCN1C/C(=C/c2cccc([N+](=O)[O-])c2)C(=O)/C(=C/c2cccc([N+](=O)[O-])c2)C1 | > 26 µM (inactive) |
| O=C(Nc1ccc(-c2nc3ccccc3o2)cc1)c1ccc(N2CCOCC2)c([N+](=O)[O-])c1 | > 26 µM (inactive) |
| C=CCc1cccc(/C=N/NC(=O)c2ccccc2OC)c1O | > 26 µM (inactive) |
| O=C(Cc1cccs1)N/N=C\c1ccc([N+](=O)[O-])s1 | > 26 µM (inactive) |
| COC(=O)c1ccc(NC(=O)c2cccnc2)cc1 | > 26 µM (inactive) |
| CC1CC(=O)c2c(cc3c(-c4c(O)cc(O)c5c(O)c6c(cc45)OC(C)CC6=O)c(O)cc(O)c3c2O)O1 (stereo not drawn) | > 26 µM (inactive) |
| O=C(CSC1c2ccccc2-c2ccccc21)N/N=C/c1ccccc1O | > 26 µM (inactive) |
| Cc1c(C(=O)N(Cc2ccccc2)C(C)C)oc2ccc(S(=O)(=O)N3CCOCC3)cc12 | > 26 µM (inactive) |
| O=C(N/N=C/c1cc([N+](=O)[O-])ccc1O)c1cccc2cc[nH]c12 | > 26 µM (inactive) |
| Cc1cccc(CSC(Nc2ccc(F)cc2)=C(C#N)C#N)c1 | > 26 µM (inactive) |
| O=[N+]([O-])c1cnc(Sc2ccncn2)s1 | > 26 µM (inactive) |

| SMILES | AC50 |
| --- | --- |
| O=S(=O)(c1ccc(NC(=S)NCc2cccnc2)cc1)N1CCCCC1 | > 26 µM (inactive) |
| COc1cc(-c2nc3ccc(C)cn3c2NCc2ccccc2)ccc1-c1cccc(Cl)c1 | > 26 µM (inactive) |
| Cc1ccc(S(=O)(=O)/N=C2\C=C(Nc3cccc(C(=O)O)c3)C(=O)c3ccccc32)c(C)c1 | > 26 µM (inactive) |
| O=C(CNC(=O)c1ccccc1)N/N=C/c1cc(Br)ccc1O | > 26 µM (inactive) |
| CCCCCc1ccc(OCCCC[n+]2cccc(C)c2)c(CCCCC)c1 | > 26 µM (inactive) |
| Clc1ccc(-c2[nH]ncc2N=Nc2ccccc2)cc1 | > 26 µM (inactive) |
| O=C(Nc1cccc(NC(=O)c2cc([N+](=O)[O-])ccc2Cl)n1)c1cc([N+](=O)[O-])ccc1Cl | 3.73 µM |
| Cc1ccccc1Oc1cc(NC(=O)CCCn2nc(C)c([N+](=O)[O-])c2C)cc([N+](=O)[O-])c1 | > 26 µM (inactive) |
| CC(C)(C)c1cc(C=C(C#N)C#N)cc(C(C)(C)C)c1O | > 26 µM (inactive) |
| CCc1ccc(-n2cc(-c3ccc(F)cc3)[n+]3c2SCCC3)cc1 | > 26 µM (inactive) |
| COc1ccc(CCNc2ncnc3c2oc2ccccc23)cc1OC | > 26 µM (inactive) |
| CC(=O)Oc1ccc(N(C(C)=O)S(=O)(=O)c2cccs2)c2ccccc12 | > 26 µM (inactive) |
| N=c1ccn(Cc2ccc(Cl)cc2Cl)cc1 | > 26 µM (inactive) |
| O=C(N/N=C/c1cc(Br)c(O)c(Br)c1O)c1ccc2c(c1)OCCO2 | > 26 µM (inactive) |
| CC1(C)N=C(N)N=C(N)N1c1ccc(OCCCOc2ccccc2)c(Cl)c1 | > 26 µM (inactive) |
| COc1ccc(Cn2c(SCc3ccc(C)cc3)nc3cc(OC)c(OC)cc3c2=N)cc1Cl | > 26 µM (inactive) |
| O=C(C1CCC1)N1CCc2cc(S(=O)(=O)Nc3ccc4c(c3)OCCO4)ccc21 | > 26 µM (inactive) |
| COc1cccc(/C=N/NC(=O)c2c(C)nc3ccc(Br)cn23)c1O | > 26 µM (inactive) |
| CCOc1ccc(/C=N/Nc2ccc(Cl)nn2)c(O)c1 | > 26 µM (inactive) |
| Cc1ccc(-c2cn(-c3ccccc3)c3[n+]2CCCS3)cc1 | > 26 µM (inactive) |
| COc1cccc(/C=N/NC(=O)c2cc3cc([N+](=O)[O-])ccc3s2)c1O | > 26 µM (inactive) |
| Cc1ccc(S(=O)(=O)NCc2ccncc2)c(C)c1C | > 26 µM (inactive) |
| CC(C)c1ccccc1-n1c(SCC(=O)N2CCc3ccccc3C2)nc2ccccc2c1=O | > 26 µM (inactive) |
| O=C1C(C2=NC(c3ccccn3)C3C(=O)N(c4ccc(OC(F)(F)F)cc4)C(=O)C23)=C(O)c2ccccc21 (stereo not drawn) | > 26 µM (inactive) |

| SMILES | AC50 |
| --- | --- |
| CCN(CC)c1ccc(/C=N/NC(=S)NCc2ccccc2)c(O)c1 | > 26 µM (inactive) |
| O=C(CCCCC(=O)Nc1ccc(F)cc1F)Nc1ccc(F)cc1F | > 26 µM (inactive) |
| COC(=O)C[C@]1(C(=O)OC)CN(C#N)N(c2ccc(Cl)cc2)C12c1ccccc1-c1ccccc12 | > 26 µM (inactive) |
| Cc1occc(=O)c1OC(=O)Nc1ccc(Cl)c(Cl)c1 | > 26 µM (inactive) |
| Cc1[nH]c(N=Nc2ccccc2)nc1N=Nc1ccccc1 | > 26 µM (inactive) |
| C[n+]1c2n(c3ccccc31)N=C(c1ccc(Cl)cc1)CS2 | > 26 µM (inactive) |
| CCCCOc1ncnc2c1[nH]c1ccc(F)cc12 | > 26 µM (inactive) |
| Fc1cccc(Cl)c1-c1nnc2ccc3ccccc3n12 | > 26 µM (inactive) |
| c1nc(NCc2ccc3c(c2)OCO3)c2cc(-c3ccc4c(c3)OCCO4)ccc2n1 | > 26 µM (inactive) |
| COc1cnc(-c2ccccn2)nc1Oc1ccc(C(C)(C)C)cc1 | > 26 µM (inactive) |
| CSc1ccccc1OCc1cc(C(=O)N2CCc3c(Cl)cccc3C2)no1 | > 26 µM (inactive) |
| Cc1cccc(OCc2n(CC(=O)OC3CC(C)CCC3C(C)C)c3ccccc3[n+]2C)c1 (stereo not drawn) | > 26 µM (inactive) |
| O=[N+]([O-])c1ccc(O)c(/C=N/Nc2ccccn2)c1 | > 26 µM (inactive) |
| Nc1nonc1-n1nnc(C(=O)N/N=C/c2ccccc2O)c1CN1CCCC1 | > 26 µM (inactive) |
| O=[N+]([O-])c1ccc(O)c(-c2cc(C(F)(F)F)nc(-c3ccccc3)n2)c1 | > 26 µM (inactive) |
| Cc1ccc(C2(c3ccc(C)cc3)CC2C(=O)Nc2ccc([N+](=O)[O-])cc2O)cc1 (stereo not drawn) | > 26 µM (inactive) |
| C/C(=N\NC(=O)c1ccc(NS(=O)(=O)c2cccs2)cc1)c1ccccn1 | > 12 µM (inactive) |
| Cc1cccc(NC(=O)Nc2cccc(Oc3c(F)c(F)c(F)c(F)c3F)c2)c1 | > 26 µM (inactive) |
| COc1ccc(-c2nc(-c3ccccn3)no2)cc1 | > 26 µM (inactive) |
| O=C(N/N=C/c1cccc(F)c1)c1c(O)c2ccccc2[nH]c1=O | > 26 µM (inactive) |
| COC(=O)[C@H](CC(C)C)N(Cc1ccccc1)S(=O)(=O)N(Cc1ccccc1)[C@@H](CC(C)C)C(=O)OC | > 26 µM (inactive) |
